According to ChEMBL document CHEMBL1201862, “PubChem BioAssay data set” (2004):
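Briefly, cells in 96-well plates were exposed to five compound concentrations for 48 h, and endpoints were estimated by linear interpolation. Here, GI50 denotes the concentration required for 50% inhibition of growth.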 Active and inactive are the calls of the source. Rule as the data show it: active = GI50 up to about 1.1 µM and inactive = higher.

Assays:
Experiment in all cases: inhibition of tumour cell growth, NCI panel, 48 h
DLD-1 = system: DLD-1
DMS-114 = system: DMS-114
LXFL 529 = system: LXFL 529
M19-MEL = system: M19-MEL
RXF 631 = system: RXF 631
XF498 = system: XF498
KM-20L2 = system: KM-20L2
HOP-18 = system: HOP-18
SNB-78 = system: SNB-78

| Structure (SMILES) | GI50 (DLD-1) | GI50 (DMS-114) | GI50 (LXFL 529) | GI50 (M19-MEL) | GI50 (RXF 631) | GI50 (XF498) | GI50 (KM-20L2) | GI50 (HOP-18) | GI50 (SNB-78) |
| --- | --- | --- | --- | --- | --- | --- | --- | --- | --- |
| COC(=O)[C@H]1CC(=O)C=C2CCCC21 (some centres not stated) | > 100 µM (inactive) | > 100 µM (inactive) | > 100 µM (inactive) | > 100 µM (inactive) | > 100 µM (inactive) | > 100 µM (inactive) | – | – | – |
| O=C(N/N=C1/C(=O)N(c2ccc(Cl)cc2Cl)C(=O)C(=O)C1c1nc2ccccc2o1)c1ccccc1O (configuration not stated) | 33 µM (inactive) | 26.4 µM (inactive) | 37.6 µM (inactive) | 38.3 µM (inactive) | – | 20.4 µM (inactive) | > 100 µM (inactive) | – | – |
| C1=NN(Cc2ccccc2)C(N(Cc2ccccc2)Cc2ccccc2)N1 (configuration not stated) | 21.1 µM (inactive) | 12.7 µM (inactive) | 12.1 µM (inactive) | 17.5 µM (inactive) | 16.1 µM (inactive) | – | 14.1 µM (inactive) | 23.3 µM (inactive) | 29.6 µM (inactive) |
| C=CCC1(C)CCCCC1(O)C[S+]([O-])c1ccccc1 (configuration not stated) | > 100 µM (inactive) | > 100 µM (inactive) | – | > 100 µM (inactive) | > 100 µM (inactive) | – | > 100 µM (inactive) | > 100 µM (inactive) | > 100 µM (inactive) |
| COC(=O)C1(C)C=C(Nc2ccccc2)C(=O)N1c1ccccc1 (configuration not stated) | > 100 µM (inactive) | > 100 µM (inactive) | > 100 µM (inactive) | > 100 µM (inactive) | 35.5 µM (inactive) | > 100 µM (inactive) | – | > 100 µM (inactive) | > 100 µM (inactive) |
| CCC1(O)C(=O)OCc2c1cc1n(c2=O)Cc2cc3c(N)cccc3nc2-1 (configuration not stated) [RS-9-Aminocamptothecin] | 0.859 µM (active) | < 0.0104 µM (active) | 0.341 µM (active) | 0.0588 µM (active) | 0.0471 µM (active) | 0.145 µM (active) | 0.132 µM (active) | 0.0424 µM (active) | 0.995 µM (active) |
| O=C1C[C@@H]2C(COC(=O)c3ccccc3)N(OCc3ccccc3)C[C@@H]2O1 (some centres not stated) | > 100 µM (inactive) | > 100 µM (inactive) | > 100 µM (inactive) | > 100 µM (inactive) | > 100 µM (inactive) | – | > 100 µM (inactive) | > 100 µM (inactive) | > 100 µM (inactive) |
| O=[N+]([O-])c1cccc(Nc2nc(Cl)nc(Cl)n2)c1 | > 100 µM (inactive) | – | > 100 µM (inactive) | > 100 µM (inactive) | > 100 µM (inactive) | > 100 µM (inactive) | > 100 µM (inactive) | – | > 100 µM (inactive) |
| O=C(NC1CCCCC1)NS(=O)(=O)c1ccc2c(c1)CCC2 [GLYHEXAMIDE] | > 100 µM (inactive) | > 100 µM (inactive) | – | > 100 µM (inactive) | > 100 µM (inactive) | > 100 µM (inactive) | – | > 100 µM (inactive) | – |
| NCCSCC(N)C(=O)O (configuration not stated) | > 497 µM (inactive) | > 497 µM (inactive) | > 497 µM (inactive) | > 497 µM (inactive) | – | > 497 µM (inactive) | > 497 µM (inactive) | – | > 497 µM (inactive) |
